The target of the assay is T1, IRAK4 (Homo sapiens, UniProt Q9NWZ3).
T1 construct: endogenous in cells; host or cells: OCI-LY10
T1 sequence (Q9NWZ3 1-460): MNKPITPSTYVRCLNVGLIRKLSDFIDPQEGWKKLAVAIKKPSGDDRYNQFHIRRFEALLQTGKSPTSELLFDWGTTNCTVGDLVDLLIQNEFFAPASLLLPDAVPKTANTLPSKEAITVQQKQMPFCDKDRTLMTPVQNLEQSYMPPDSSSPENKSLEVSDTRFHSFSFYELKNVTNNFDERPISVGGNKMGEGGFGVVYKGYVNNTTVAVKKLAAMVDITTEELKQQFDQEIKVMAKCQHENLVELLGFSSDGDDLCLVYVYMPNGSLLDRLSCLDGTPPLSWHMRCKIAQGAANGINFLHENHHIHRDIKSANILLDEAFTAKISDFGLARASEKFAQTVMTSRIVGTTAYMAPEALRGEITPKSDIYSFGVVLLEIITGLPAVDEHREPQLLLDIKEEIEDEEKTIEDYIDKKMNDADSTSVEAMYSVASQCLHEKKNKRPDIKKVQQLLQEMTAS
Briefly: IRAK4 MSD Degradation in OCI-LY10. The format is cell-based. The following applies: OCI-LY10 cells, Meso Scale Discovery, incubated 4 to 24 hours. The method in brief:
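IRAK4 degradation was quantified by Meso Scale electrochemiluminescence (anti-IRAK4 capture and detection antibodies) in lysates of treated OCI-LY10 cells. Compounds were dosed at 8 concentrations (1:3 dilutions, top 1 to 10 μM) for 4 to 24 h; DC50 derived by three-parameter logistic fitting.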

Broadly, the DC50 is the midpoint of the concentration-degradation curve.

`Cc1cc2nn([C@H]3CC[C@H](CN4C5CCC4CN(c4cccc6c4n(C)c(=O)n6C4CCC(=O)NC4=O)C5)CC3)cc2cc1NC(=O)c1cccc(C(F)(F)F)n1` (some centres unmarked) [I-398]: the DC50 is less than 0.01 µM.
The same measure for `COc1cc2nn([C@H]3CC[C@H](CN4CCCN(c5cccc6c5n(C)c(=O)n6C5CCC(=O)NC5=O)CC4)CC3)cc2cc1NC(=O)c1cccc(C(F)(F)F)n1` (some centres unmarked) [I-255]: less than 0.01 µM; for `COc1cc(NC(=O)c2cccc(C(F)(F)F)n2)cc2cn([C@H]3CC[C@H](CN4CCN(c5cccc6c5n(C)c(=O)n6C5CCC(=O)NC5=O)CC4)CC3)nc12` (some centres unmarked) [I-218]: less than 0.01 µM; for `CN(CCCNc1cccc2c1C(=O)N(C1CCC(=O)NC1=O)C2=O)C[C@H]1CC[C@H](c2nc3cc(C(C)(C)O)c(NC(=O)c4cncc(Cl)c4)cc3s2)CC1` (some centres unmarked) [I-476]: more than 0.2 µM.
The molecule `CC(C)Nc1c(C(=O)N[C@H]2CC[C@H](CN3CCC(c4cccc5c4n(C)c(=O)n5C4CCC(=O)NC4=O)CC3)CC2)cnc2c1Oc1cc(C#N)ccc1O2` (some centres unmarked) [I-309] returned a DC50 of less than 0.01 µM.
As for `CN(CCn1cc2cc(NC(=O)c3cnn4cccnc34)c(F)cc2n1)C1CCN(c2cccc3c2n(C)c(=O)n3C2CCC(=O)NC2=O)CC1` (centres unmarked) [I-22, N-[2-[2-[[1-[1-(2,6-dioxo-3-piperidyl)-3-methyl-2-oxo-benzimidazol-4-yl]-4-piperidyl]-methyl-amino]ethyl]-6-fluoro-indazol-5-yl]pyrazolo[1,5-a] pyrimidine-3-carboxamide], the figure is more than 0.2 µM.
As for `CC(C)Nc1cc(-c2ccc3cc(C#N)cnn23)ncc1C(=O)N[C@H]1CC[C@H](CN2CCC(c3cccc4c3n(C)c(=O)n4C3CCC(=O)NC3=O)CC2)CC1` (some centres unmarked) [I-183], the figure is less than 0.01 µM; as for `COc1cc2nn([C@H]3CC[C@H](CN(C)C4CCN(c5cccc6c(N7CCC(=O)NC7=O)cncc56)CC4)CC3)cc2cc1NC(=O)c1cncc(Cl)c1` [I-117], 0.05 to 0.1 µM; as for `Cn1c(=O)n(C2CCC(=O)NC2=O)c2ccc(Cl)c(C3CCN(C[C@H]4C[C@H](n5cc6cc(NC(=O)c7cccc(C(F)(F)F)n7)ncc6n5)C4)CC3)c21` (some centres unmarked) [I-149], 0.1 to 0.2 µM.
As for `COc1ccc2c(c1C1CCN(C[C@H]3CC[C@H](n4cc5cc(NC(=O)c6cncc(Cl)c6)ccc5n4)CC3)CC1)n(C)c(=O)n2C1CCC(=O)NC1=O` (some centres unmarked) [I-116], the figure is 0.1 to 0.2 µM; as for `COc1cc2nn([C@H]3CC[C@H](CN4CCN(c5cc(F)cc6c(N7CCC(=O)NC7=O)cncc56)CC4)CC3)cc2cc1NC(=O)c1cccc(C(F)(F)F)n1` [I-413], less than 0.01 µM; as for `CC(C)Nc1cc(-n2ccc3cc(C(F)(F)F)cnc32)ncc1C(=O)N[C@H]1CC[C@H](CN2CCN(c3ccc4c(c3)n(C)c(=O)n4C3CCC(=O)NC3=O)CC2)CC1` (some centres unmarked) [I-374], more than 0.2 µM.
`CC(C)Nc1cc(-n2ccc3cc(C#N)cnc32)ncc1-c1cn([C@H]2CC[C@H](CN3CCC(c4cccc5c(N6CCC(=O)NC6=O)cncc45)CC3)CC2)nn1` [I-329] registered a DC50 of less than 0.01 µM.
As for `COc1cc2nc([C@H]3CC[C@H](CN(C)CCCCNc4cccc5c4C(=O)N(C4CCC(=O)NC4=O)C5=O)CC3)sc2cc1NC(=O)c1cncc(F)c1` (some centres unmarked) [I-479], the figure is more than 0.2 µM; as for `CN(CCn1cc2cc(NC(=O)c3cccc(C(F)(F)F)n3)c(F)cc2n1)C1CCN(c2cccc3c2n(C)c(=O)n3C2CCC(=O)NC2=O)CC1` (centres unmarked) [I-19, N-[2-[2-[[1-[1-(2,6-dioxo-3-piperidyl)-3-methyl-2-oxo-benzimidazol-4-yl]-4-piperidyl]-methyl-amino]ethyl]-6-fluoro-indazol-5-yl]-6-(trifluoromethyl)pyridine-2-carboxamide], more than 0.2 µM; as for `COc1cc2nn([C@H]3CC[C@H](CN4CCN(c5cccc6c5n(C5CC5)c(=O)n6C5CCC(=O)NC5=O)CC4)CC3)cc2cc1NC(=O)c1cccc(C(F)(F)F)n1` (some centres unmarked) [I-426], less than 0.01 µM.
As for `CCn1c(=O)n(C2CCC(=O)NC2=O)c2cccc(N3CCN(C[C@H]4CC[C@H](n5cc6cc(NC(=O)c7cccc(C(F)(F)F)n7)c(OC)cc6n5)CC4)CC3)c21` (some centres unmarked) [I-253], the figure is less than 0.01 µM.
As for `Cn1c(=O)n(C2CCC(=O)NC2=O)c2cccc(C3CCN(C[C@H]4CC[C@H](n5cc6cc(NC(=O)c7nc(C(F)(F)F)cs7)ccc6n5)CC4)CC3)c21` (some centres unmarked) [I-215], the figure is less than 0.01 µM.
As to `COc1cc2nn([C@H]3CC[C@H](CN4CCC(c5cccc6c5n(C)c(=O)n6C5CCC(=O)NC5=O)CC4)CC3)cc2cc1NC(=O)c1cc(Cl)cnn1` (some centres unmarked) [I-135], the DC50 was more than 0.2 µM.
The same measure for `CN(C[C@H]1CC[C@H](n2cc3cc(NC(=O)c4cccc(C(F)(F)F)n4)c(C#N)cc3n2)CC1)C1CCN(c2cccc3c2n(C)c(=O)n3C2CCC(=O)NC2=O)CC1` (some centres unmarked) [I-239]: less than 0.01 µM; for `COc1cc2nn([C@H]3CC[C@H](CN(C)C4CCN(c5cccc6c5n(C)c(=O)n6C5CCC(=O)NC5=O)CC4)CC3)cc2cc1NC(=O)c1ccc(C(F)(F)F)cn1` (some centres unmarked) [I-16]: 0.01 to 0.05 µM.
As for `Cn1c(=O)n(C2CCC(=O)NC2=O)c2cccc(C3CCN(C[C@H]4CC[C@H](n5cc6cc(NC(=O)c7cccc(C(F)(F)F)n7)ccc6n5)CC4)C(C(F)(F)F)C3)c21` (some centres unmarked) [I-172], the figure is more than 0.2 µM; as for `CC(C)Nc1c(C(=O)N[C@H]2CC[C@H](CN3CCN(c4cccc5c4n(C)c(=O)n5C4CCC(=O)NC4=O)CC3)CC2)cnc2c1Oc1ccc(C#N)cc1O2` (some centres unmarked) [I-410], more than 0.2 µM; as for `COc1cc2nc([C@H]3C[C@H](CN4CCC(c5cccc6c5n(C)c(=O)n6C5CCC(=O)NC5=O)CC4)C3)sc2cc1NC(=O)c1cccc(C(F)(F)F)n1` (some centres unmarked) [I-235], 0.05 to 0.1 µM.
As for `CC(C)Nc1cc(-n2ccc3cc(C#N)cnc32)ncc1C(=O)NC[C@H]1CC[C@H](CN2CCC(c3cccc4c3n(C)c(=O)n4C3CCC(=O)NC3=O)CC2)CC1` (some centres unmarked) [I-85], the figure is 0.05 to 0.1 µM; as for `COc1cc2nn([C@H]3CC[C@H](CN4CCC(c5c(OC)ccc6c5n(C)c(=O)n6C5CCC(=O)NC5=O)CC4)CC3)cc2cc1NC(=O)c1cccc(C(F)(F)F)n1` (some centres unmarked) [I-48], less than 0.01 µM; as for `COc1cc2nc([C@H]3CC[C@H](CN(C)CCCNc4cccc5c4C(=O)N(C4CCC(=O)NC4=O)C5=O)CC3)sc2cc1NC(=O)c1cncc(F)c1` (some centres unmarked) [I-482], more than 0.2 µM.
The molecule `N#Cc1cnc2c(C(=O)Nc3ccc4nn([C@H]5CC[C@H](CN6CCC(c7ccc8c(N9CCC(=O)NC9=O)cncc8c7)CC6)CC5)cc4c3)cnn2c1` [I-170, 6-Cyano-N-[2-[4-[[4-[4-(2,4-dioxohexahydropyrimidin-1-yl)-7-isoquinolyl]-1-piperidyl]methyl]cyclohexyl]indazol-5-yl]pyrazolo[1,5-a]pyrimidine-3-carboxamide] showed a half-maximal degradation concentration (DC50) of more than 0.2 µM.
As for `COc1cc2nn([C@H]3CC[C@H](CN4CCC(c5cccc6c5n(C)c(=O)n6C5CCC(=O)NC5=O)CC4)CC3)cc2cc1NC(=O)c1cncc(Cl)c1` (some centres unmarked) [I-196], the figure is less than 0.01 µM; as for `C[C@H]1CN(c2cccc3c2n(C)c(=O)n3C2CCC(=O)NC2=O)CCN1C[C@H]1CC[C@H](n2cc3cc(NC(=O)c4cccc(C(F)(F)F)n4)ccc3n2)CC1` (some centres unmarked) [I-248], less than 0.01 µM.
As for `Cn1c(=O)n(C2CCC(=O)NC2=O)c2c(F)ccc(C3CCN(C[C@H]4CC[C@H](n5cc6cc(NC(=O)c7cccc(C(F)(F)F)n7)c(F)cc6n5)CC4)CC3)c21` (some centres unmarked) [I-25], the figure is less than 0.01 µM; as for `Cn1c(=O)n(C2CCC(=O)NC2=O)c2cccc(C3CCN(C[C@H]4CC[C@H](n5cc6cc(NC(=O)c7cnccn7)c(F)cc6n5)CC4)CC3)c21` (some centres unmarked) [I-49], more than 0.2 µM.

Values taken from US12150995B2, “IRAK degraders and uses thereof” (Kymera Therapeutics, Inc., priority 2020, dated 2024).
